Measured values published in US9040714B2 (MannKind Corporation, priority 2010, dated 2015).

Target: human IRE-1α (GST-IRE-1α) (Homo sapiens (Human), UniProt O75460)
Assay: IRE-1α assay in vitro: cleavage of Cy5/BHQ2-labelled mini-XBP-1 mRNA stem-loop substrate
Assay type: biochemical
Details: average IC50 for inhibition of IRE-1α
Method: In some embodiments IRE-la inhibitor compounds form a complex with IRE-1α. […] Other substrates also can be used to detect cleavage. See US 2007/0105123.
A fusion protein comprising glutathione S transferase (GST) and human IRE-1α (GST-IRE-1α) obtained from a 500 ml baculovirus-infected insect cell culture can be used to measure IRE-1α activity in vitro.
Five μl of a reaction mixture comprising IX reaction buffer (5× reaction buffer is 100 mM Hepes pH 7.5, 250 mM KOAc, 2.5 mM MgCl2), 3 mM DTT, and 0.4% polyethylene glycol water is added to each well of 384 well plates. Twenty-five nanoliters of a 1 mM test compound solution are added to test wells. Three μl of a […] IRE-1α preparation are added to each test well and to positive control wells (final concentration 5.82 ng/well). Negative control wells contain only reaction mixture and test compound.
After spinning the plates at 1200 rpm for 30 seconds, 3 μl of an IRE-1α human mini-XBP-1 mRNA stem-loop substrate 5′-[…]-3′ (SEQ ID NO:1), labeled with the fluorescent dye Cy5 at the 5′ end and Black Hole Quencher 2 (BH2) at the 3′ end, are added to each well of a control plate. The plates are again spun at 1200 rpm for 30 seconds. Final concentrations for the assay are: 63 nM IRE-1α substrate, 5.82 ng IRE-1α protein, and 2.5 μM test compound.
The plates are covered with lids and incubated for one hour at 30° C. The plates are then transferred to an ACQUEST™ microplate reader. Data is analyzed using data analysis software, and the percent activity of IRE-1α is calculated.
IC50 for inhibition of IRE-1α of compounds identified in Table 1 was measured as described in EXAMPLE 35.

Chain of human IRE-1α (GST-IRE-1α) (O75460 19-977): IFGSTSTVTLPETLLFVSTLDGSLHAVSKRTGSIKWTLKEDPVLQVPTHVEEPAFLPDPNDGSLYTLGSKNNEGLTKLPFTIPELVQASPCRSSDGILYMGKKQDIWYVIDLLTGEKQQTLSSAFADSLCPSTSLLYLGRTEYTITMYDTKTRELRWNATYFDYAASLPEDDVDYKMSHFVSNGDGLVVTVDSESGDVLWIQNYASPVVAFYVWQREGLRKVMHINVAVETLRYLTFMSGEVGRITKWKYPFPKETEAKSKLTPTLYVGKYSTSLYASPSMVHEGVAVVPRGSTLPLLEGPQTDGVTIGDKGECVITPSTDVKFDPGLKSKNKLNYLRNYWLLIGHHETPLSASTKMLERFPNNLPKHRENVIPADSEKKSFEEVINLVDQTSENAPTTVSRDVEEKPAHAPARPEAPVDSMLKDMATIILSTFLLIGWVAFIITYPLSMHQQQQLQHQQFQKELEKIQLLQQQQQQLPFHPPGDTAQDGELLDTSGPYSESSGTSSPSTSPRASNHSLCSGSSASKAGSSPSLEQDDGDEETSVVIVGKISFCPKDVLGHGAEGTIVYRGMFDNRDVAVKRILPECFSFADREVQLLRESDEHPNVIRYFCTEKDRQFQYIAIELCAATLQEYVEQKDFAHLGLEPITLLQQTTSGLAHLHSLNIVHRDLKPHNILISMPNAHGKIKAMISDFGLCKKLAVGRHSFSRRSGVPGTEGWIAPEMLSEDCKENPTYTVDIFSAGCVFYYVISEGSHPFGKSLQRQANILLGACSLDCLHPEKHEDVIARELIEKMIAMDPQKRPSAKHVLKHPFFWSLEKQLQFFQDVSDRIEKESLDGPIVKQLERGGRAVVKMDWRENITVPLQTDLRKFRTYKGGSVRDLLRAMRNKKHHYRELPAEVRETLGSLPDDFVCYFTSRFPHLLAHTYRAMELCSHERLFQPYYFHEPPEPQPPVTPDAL

Row | SMILES | IC50
1 | O=Cc1c(O)ccc2c(=O)c(-c3cnn(-c4ccccc4)c3)coc12 [Example 40] | < 1 µM
2 | O=Cc1c(O)ccc2c1CCN(C(=O)c1cccnc1)C2 [Example 31] | > 10 µM
3 | Cc1nc(N2CCc3c(ccc(O)c3C=O)C2)sc1C(=O)N1CCN(C)CC1 [Example 32] | < 10 µM
4 | CN1CCN(CC(=O)N2CCc3c(ccc(O)c3C=O)C2)CC1 [Example 30] | > 10 µM

Further lines, results first:

Row | IC50 | SMILES
5 | < 1 µM | Cc1c(-c2ccc(C(=O)N3CCOCC3)cc2)c(=O)oc2c(C=O)c(O)c(Cl)cc12 [Example 67]
6 | < 1 µM | Cc1c(-c2ccc(C(=O)NCCN3CCOCC3)cc2)c(=O)oc2c(C=O)c(O)c(Cl)cc12 [Example 151]

System: IRE-1α-mediated XBP-1 splicing in human myeloma MM.1s cells
Assay: Cellular EC50: endogenous XBP-1 splicing in myeloma cells by RT-PCR (DTT stress)
Assay type: cell-based
Details: MM1.S, average cellular EC50, XBP-1 splicing in myeloma cells, read-out: EC50_av
Method: Human myeloma MM.1s cells are incubated with a compound for 1.25 hours before stressing the cells with 2 mM dithiothreitol (DTT). After an additional 45 minutes (2 hours total) with compound and DTT, the cells are harvested with TRIZOL® (a mono-phasic solution of phenol and guanidine isothiocyanate), and total RNA is prepared as directed by the manufacturer (Invitrogen). Human XBP-1 is amplified by RT-PCR with the following primers, which flank the 26 base unconventional intron excised by IRE-1α:
RT-PCR of unstressed (U) cells then generates the upper band. When cells are stressed (S) with the endoplasmic reticulum (ER) stressing agent DTT, IRE-1α is activated due to accumulating unfolded protein and the resulting RT-PCR, product is 26 base pairs shorter.
Compounds which pass specificity assays are assayed for cellular EC50 using endogenous XBP-1 splicing in myeloma cells. XBP-1 is regulated through the excision of a 26 nucleotide intron from the XBP-1 mRNA by the highly specific endoribonuclease activity of IRE-1α. […] This splicing event is used to measure IRE-1α activity on XBP-1 mRNA in cells and tissues.
Briefly, compounds are incubated in the presence or absence of an ER stress agent (e.g., DTT), and the ratio of XBP-1u (unspliced) to XBP-1 s (spliced) is quantified by RT-PCR. The ED50 is determined as the 50% XBP-1s to total XPB-1 levels.

Row | SMILES | EC50
7 | O=Cc1c(O)ccc2c(=O)c(-c3cnn(-c4ccccc4)c3)coc12 [Example 40] | > 10 µM
8 | CCNC(=O)CCc1nc2c(C=O)c(O)ccc2n1C [Example 230] | > 10 µM
9 | COCCNC(=O)c1cc2c(C=O)c(O)ccc2o1 [Example 282] | > 10 µM
10 | COc1cc2c(=O)c(CC(=O)NCCN(C)C)c(C)oc2c(C=O)c1O [Example 211] | > 10 µM
11 | Cc1oc2c(C=O)c(O)ccc2c(=O)c1CC(=O)N1CCN(C)CC1 [Example 222] | < 10 µM
12 | CCNC(=O)CCc1nc2c(C=O)c(O)ccc2o1 [Example 252] | > 10 µM
13 | CCNC(=O)c1cc2c(C=O)c(O)ccc2o1 [Example 285] | < 10 µM
14 | CCNC(=O)c1cc2c(C=O)c(O)ccc2s1 [Example 261] | < 10 µM
15 | COC(=O)Cc1cc2c(C=O)c(O)ccc2s1 [Example 264] | > 10 µM
16 | O=Cc1c(O)ccc2oc(C(=O)O)cc12 [Example 281] | > 10 µM
17 | COCCNC(=O)CCc1cc2c(C=O)c(O)ccc2s1 [Example 266] | < 10 µM
18 | CCNC(=O)CCc1cc2c(C=O)c(O)ccc2s1 [Example 269] | > 10 µM
19 | COCc1cc(=O)oc2c(C=O)c(O)cc(OC)c12 [Example 122] | < 10 µM
20 | COCCOc1cc2c(C)c(CC(=O)N3CCN(C)CC3)c(=O)oc2c(C=O)c1O [Example 189] | < 10 µM
21 | CC(=O)NC1CCN(c2ccc3c(C=O)c(O)ccc3n2)C1 (centres unmarked) [Compound 51] | < 10 µM
22 | COCCNC(=O)c1cc2c(C=O)c(O)ccc2[nH]1 [Example 273] | > 10 µM
23 | COCCNC(=O)CCc1nc2c(C=O)c(O)ccc2o1 [Example 249] | > 10 µM
24 | COCCNC(=O)c1cc2c(C=O)c(O)ccc2s1 [Example 258] | > 10 µM
25 | Cc1nc2c(C=O)c(O)ccc2o1 [Example 255] | < 10 µM
26 | O=Cc1c(O)ccc2sc(CC(=O)O)cc12 [Example 265] | > 10 µM
27 | Cn1c(CCC(=O)O)nc2c(C=O)c(O)ccc21 [Example 246] | > 10 µM
28 | COCCNC(=O)Cc1c(C)c2c(OCCOC)cc(O)c(C=O)c2oc1=O [Example 159] | < 10 µM
29 | CCOC(=O)c1cc2c(C=O)c(O)ccc2[nH]1 [Example 279] | > 10 µM

The next lines start with the values.

Row | EC50 | SMILES
30 | > 10 µM | Cc1c(-c2ccc(C(=O)N3CCOCC3)cc2)c(=O)oc2c(C=O)c(O)c(Cl)cc12 [Example 67]
31 | > 10 µM | Cc1c(-c2ccc(C(=O)NCCN3CCOCC3)cc2)c(=O)oc2c(C=O)c(O)c(Cl)cc12 [Example 151]
32 | > 10 µM | Cc1oc2c(C=O)c(O)ccc2c(=O)c1CC(=O)NCCN1CCOCC1 [Example 225]
33 | > 10 µM | Cc1oc2c(C=O)c(O)ccc2c(=O)c1CCC(=O)NCCN(C)C [Example 218]
34 | > 10 µM | CCOC(=O)CCc1nc2c(C=O)c(O)ccc2o1 [Example 247]
35 | < 10 µM | CCNC(=O)CCc1c(C)c2cc(OCCOC)c(O)c(C=O)c2oc1=O [Example 183]
36 | > 10 µM | O=Cc1c(O)ccc2nc(CCC(=O)NCCN3CCOCC3)[nH]c12 [Example 235]
37 | < 10 µM | COCCOc1cc2c(C)c(CC(=O)N3CCOCC3)c(=O)oc2c(C=O)c1O [Example 188]
38 | > 10 µM | COCCNC(=O)CCc1c(C)c2cc(OCCN3CCOCC3)c(O)c(C=O)c2oc1=O [Example 202]
39 | > 10 µM | Cc1nc2ccc(O)c(C=O)c2o1 [Example 256]
40 | > 10 µM | CCOC(=O)CCc1c(C)c2cc(N(C)C(C)=O)c(O)c(C=O)c2oc1=O [Example 144]
41 | > 10 µM | CN1CCN(C(=O)c2cc3c(C=O)c(O)ccc3o2)CC1 [Example 284]
42 | < 10 µM | Cc1c(Br)c(=O)oc2c(C=O)c(O)ccc12 [Example 1]
43 | < 10 µM | COCCOc1cc(O)c(C=O)c2oc(=O)c(CC(=O)N3CCOCC3)c(C)c12 [Example 160]
44 | > 10 µM | Cc1oc2c(C=O)c(O)ccc2c(=O)c1CCC(=O)N1CCN(C)CC1 [Example 88]
45 | < 10 µM | CN1CCC(NC(=O)CCc2nc3c(C=O)c(O)ccc3[nH]2)CC1 [Example 233]
46 | < 10 µM | COCCc1c(C)c2c(OC)cc(O)c(C=O)c2oc1=O [Example 124]
47 | < 10 µM | COCCNC(=O)Cc1c(C)oc2c(C=O)c(O)ccc2c1=O [Example 220]
48 | < 10 µM | Cc1c(CCC(=O)N2CCOCC2)c(=O)oc2c(C=O)c(O)ccc12 [Example 69]
49 | > 10 µM | O=Cc1c(O)ccc2[nH]c(C(=O)N3CCOCC3)cc12 [Example 274]
50 | > 10 µM | Cn1c(CCC(=O)N2CCOCC2)nc2ccc(O)c(C=O)c21 [Example 229]
51 | < 10 µM | Cc1oc2c(C=O)c(O)ccc2c(=O)c1CCC(=O)N1CCOCC1 [Example 216]

Row | EC50 | SMILES
52 | > 10 µM | O=Cc1c(O)ccc2oc(C(=O)N3CCOCC3)cc12 [Example 283]
53 | < 10 µM | COCCNC(=O)CCc1c(C)oc2c(C=O)c(O)ccc2c1=O [Example 215]
54 | < 10 µM | Cc1c(-c2ccc(C(=O)N3CCC(C)CC3)cc2)c(=O)oc2c(C=O)c(O)ccc12 [Example 19]
55 | < 10 µM | COCCOc1cc2c(C)c(CC(=O)NCCN3CCOCC3)c(=O)oc2c(C=O)c1O [Example 187]
56 | 10 µM | Cc1c(CC(=O)N2CCOCC2)c(=O)oc2c(C=O)c(O)c(OCCN3CCOCC3)cc12 [Example 206]
57 | > 10 µM | Cn1c(CCC(=O)N2CCOCC2)nc2c(C=O)c(O)ccc21 [Example 242]
58 | > 10 µM | CCNC(=O)CCc1c(C)oc2c(C=O)c(O)c(OC)cc2c1=O [Example 213]
59 | > 10 µM | CCNC(=O)CCc1c(C)c2cc(OCCN3CCOCC3)c(O)c(C=O)c2oc1=O [Example 204]
60 | < 10 µM | Cc1c(CCC(=O)N2CCN(C)CC2)c(=O)oc2c(C=O)c(O)ccc12 [Example 15]
61 | > 10 µM | COc1cc2c(=O)c(CCC(=O)N3CCN(C)CC3)c(C)oc2c(C=O)c1O [Example 94]
62 | > 10 µM | O=Cc1c(O)ccc2sc(CCC(=O)N3CCOCC3)cc12 [Example 268]
63 | > 10 µM | O=Cc1c(O)ccc2oc(CCC(=O)N3CCOCC3)nc12 [Example 250]
64 | > 10 µM | CN1CCN(C(=O)CCc2nc3c(C=O)c(O)ccc3o2)CC1 [Example 251]
65 | < 10 µM | COCCOCCc1c(C)c2c(OC)cc(O)c(C=O)c2oc1=O [Example 145]
66 | < 10 µM | O=Cc1c(O)ccc2sc(C(=O)NCCN3CCOCC3)cc12 [Example 262]
67 | > 10 µM | CCOC(=O)CCc1cc2c(C=O)c(O)ccc2s1 [Example 267]
68 | > 10 µM | O=Cc1c(O)ccc2[nH]c(CCC(=O)N3CCOCC3)nc12 [Example 232]
69 | > 10 µM | CN1CCN(C(=O)CCc2nc3ccc(O)c(C=O)c3n2C)CC1 [Example 239]
70 | < 10 µM | COCCOc1cc(O)c(C=O)c2oc(=O)c(C)c(C)c12 [Example 165]
71 | < 10 µM | O=Cc1c(O)ccc2nc(-c3cccc(C(=O)N4CCOCC4)c3)ccc12 [Example 43]
72 | > 10 µM | O=Cc1c(O)ccc2[nH]c(C(=O)NCCN3CCOCC3)cc12 [Example 277]

Same assay, conditions: MM1.S, read-out: EC50_av

Row | SMILES | EC50
73 | O=Cc1c(O)ccc2cc(-c3ccc(Br)cc3)c(=O)oc12 [Example 7] | > 10 µM
74 | COc1cc2c(C)c(Br)c(=O)oc2c(C=O)c1O [Example 6] | < 10 µM
75 | CN1CCN(C(=O)c2ccc(-c3nc4ccc(O)c(C=O)c4[nH]3)cc2)CC1 [Compound 62] | > 10 µM
76 | O=Cc1c(O)ccc2nc(-c3ccc(C(=O)O)cc3)[nH]c12 [Compound 58] | > 10 µM
77 | Cc1c(-c2cccc(C(=O)N3CCCC3)c2)c(=O)oc2c(C=O)c(O)ccc12 [Example 21] | > 10 µM
